Measured values: patent US6784201B2, “Benzothiepines having activity as inhibitors of ileal bile acid transport and taurocholate uptake” (G.D. Searle & Company, priority 1994, dated 2004)
Where a name gives a salt, the structure may show the parent alone. Read-outs that look alike come from different tables or passages of the source.

Molecular target: T1, human IBAT (Homo sapiens, UniProt Q12908)
T1 construct: expressed in transfected cells; host or cells: Baby hamster kidney (BHK) cells, clone H14
T1 sequence (Q12908 1-348): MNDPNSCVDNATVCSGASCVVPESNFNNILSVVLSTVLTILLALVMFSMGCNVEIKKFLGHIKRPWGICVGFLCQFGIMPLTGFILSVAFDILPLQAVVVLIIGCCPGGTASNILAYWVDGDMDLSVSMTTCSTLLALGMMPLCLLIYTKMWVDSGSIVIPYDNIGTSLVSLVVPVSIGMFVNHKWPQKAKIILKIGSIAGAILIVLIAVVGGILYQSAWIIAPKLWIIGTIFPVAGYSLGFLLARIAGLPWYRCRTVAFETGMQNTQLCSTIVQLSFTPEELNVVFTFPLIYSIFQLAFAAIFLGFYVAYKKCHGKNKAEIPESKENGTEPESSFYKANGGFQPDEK
Test: In vitro assay of IBAT-mediated uptake of [14C]-taurocholate (TC) in H14 cells
Assay type: cell-based
Method: In Vitro Assay of Compounds that Inhibit IBAT-Mediated Uptake of [^14C]-Taurocholate (TC) in H14 Cells
Baby hamster kidney cells (BHK) transfected with the cDNA of human IBAT (H14 cells) are seeded at 60,000 cells/well in 96 well Top-Count tissue culture plates for assays run within in 24 hours of seeding, 30,000 cells/well for assays run within 48 hours, and 10,000 cells/well for assays run within 72 hours.
On the day of assay, the cell monolayer is gently washed once with 100 μl assay buffer (Dulbecco's Modified Eagle's medium with 4.5 g/L glucose+0.2% (w/v) fatty acid free bovine serum albumin-(FAF)BSA). To each well 50 μl of a two-fold concentrate of test compound in assay buffer is added along with 50 μl of 6 μM [^14C]-taurocholate in assay buffer (final concentration of 3 μM [^14C]-taurocholate). The cell culture plates are incubated 2 hours at 37° C. prior to gently washing each well twice with 100 μl 4° C. Dulbecco's phosphate-buffered saline (PBS) containing 0.2% (w/v) (FAF)BSA. The wells are then gently washed once with 100 μl 4° C. PBS without (FAF)BSA. To each 200 μl of liquid scintillation counting fluid is added, the plates are heat sealed and shaken for 30 minutes at room temperature prior to measuring the amount of radioactivity in each well on a Packard Top-Count instrument.

[1] = In Vitro Taurocholate Uptake, Table 10, read-out: Human TC IC50

| Compound | IC50 (read-out: Human TC IC50) [µM] | further results |
| --- | --- | --- |
| CCCCC1(CCCC)CS(=O)(=O)c2ccc(N(C)C)cc2C(c2cccc(OCCOCCOCC[n+]3ccc(N4CCCC4)cc3)c2)C1O (centres unmarked) [Example 1110] | 0.008 | – |
| CCCCC1(CC)CS(=O)(=O)c2ccc(N(C)C)cc2C(c2ccccc2)C1O (single isomer, unassigned) [Example 1259] | – | IC50 (Human TC IC50): 16.5 µM |
| CCCCC1(CCCC)CS(=O)(=O)c2ccc(N(C)C)cc2C(c2cccc(OCCOCCOCC[n+]3ccc(N(C)C)cc3)c2)C1O (centres unmarked) [Example 1009] | 0.001 | – |
| CCCCC1(CCCC)CS(=O)(=O)c2ccc(N(C)C)cc2C(c2ccc(OCCCCCCCC[N+](CC)(CC)CC)c(F)c2)C1O (centres unmarked) [Example 1045] | 0.003 | – |
| CCCCC1(CCCC)CS(=O)(=O)c2ccc(N(C)C)cc2C(c2cccc(OCCOCCOCC[N+](CC)(CC)CCNC(N)=O)c2)C1O (centres unmarked) [Example 1364] | 0.006 | – |
| CCCCC1(CCCC)CS(=O)(=O)c2ccc(N(C)C)cc2C(c2cccc(OCCOCCOCC[n+]3ccc(C4CCC(C)CC4)cc3)c2)C1O (centres unmarked) [Example 1297] | 0.029 | – |
| CCCCC1(CCCC)CS(=O)(=O)c2ccc(N(C)C)cc2C(c2cccc(OCCOCCOCC[N+](C)(C)CC(=O)OCC)c2)C1O (centres unmarked) [Example 1093] | 0.006 | – |
| CCCCC1(CCCC)CS(=O)(=O)c2ccc(N(C)C)cc2C(c2ccc(OCc3cccc(C[N+](CC)(CC)CC)c3)c(F)c2)C1O (centres unmarked) [Example 1025] | 0.002 | – |
| CCCC[C@]1(CC)CSc2ccccc2[C@@H](c2ccccc2)[C@H]1O [Example 62, (3α,4β,5β) 3-Butyl-3-ethyl-4-hydroxy-5-phenyl-2,3,4,5-tetrahydrobenzothiepine] | – | IC50 (H14 cells, Table 5, read-out: IC50 uM (In vitro Taurocholate Cell Uptake)): 10 µM |
| CCCCC1(CCCC)CS(=O)(=O)c2ccc(N(C)C)cc2C(c2ccc(OCCOCCOCC[N+]3(C)CC[N+](C)(C)CC3)c(F)c2)C1O (centres unmarked) [Example 1354] | 0.006 | – |
| CCCCC1(CCCC)CS(=O)(=O)c2ccc(N(C)C)cc2C(c2ccc(OCCOCC[N+]3(C)CC[N+](C)(C)CC3)c(F)c2)C1O (centres unmarked) [Example 1275] | 0.024 | – |
| CCCC[C@]1(CC)CS(=O)(=O)c2ccc(N)cc2[C@@H](c2ccccc2)[C@H]1O [Example 64, (3α,4β,5β) 3-Butyl-3-ethyl-4-hydroxy-7-amino-5-phenyl-2,3,4,5-tetrahydrobenzothiepine-1,1-dioxide] | – | inhibition at 6 µM (6 μM): 100% |
| CCCCC1(CCCC)CS(=O)(=O)c2ccc(N(C)C)cc2C(c2cccc(OCCOCCOCC[n+]3ccc(C(C)(C)C)cc3)c2)C1O (centres unmarked) [Example 1138] | 0.022 | – |
| CCCCC1(CCCC)CS(=O)(=O)c2ccc(N(C)C)cc2C(c2cccc(OCCOCCOCC[N+](CC)(CC)CCC(=O)O)c2)C1O (centres unmarked) [Example 1362] | 0.019 | – |
| trans-4-Hydroxy-5-phenyl-2,3,4,5-tetrahydro spiro(benzothiepine-3,1′-cyclohexane)-1,1-dioxide [Example 59] | – | In vitro % Inhibition of TC Uptake (50 μM): 96% |
| CCCCC1(CCCC)CS(=O)(=O)c2ccc(N(C)C)cc2C(c2cccc(OCCOCCOCC[N+]3(CCOc4ccc(Br)cc4)CCCC3)c2)C1O (centres unmarked) [Example 1288] | 0.013 | – |
| CCCCC1(CCCC)CS(=O)(=O)c2ccc(N(C)C)cc2C(c2ccc(OCCOCCOc3cccc(N(CC)CC)c3)c(F)c2)C1O (centres unmarked) [Example 1296] | 0.063 | – |
| CCCCC1(CCCC)CS(=O)(=O)c2ccc(N(C)C)cc2[C@@H](c2ccc(OCCCC[N+]34CCN(CC3)CC4)cc2)[C@H]1O [Example 1409, (4R-cis)-1-[4-[4-[3,3-Dibutyl-7-(dimethylamino)-2,3,4,5-tetrahydro-4-hydroxy-1,1-dioxido-1-benzothiepin-5-yl]phenoxy]butyl]-4-aza-1-azoniabicyclo[2.2.2]octane-4-methylbenzenesulfonate (Salt)] | – | IC50 [1]: 0.0009 µM |
| CCCCC1(CCCC)CS(=O)(=O)c2ccc(N(C)C)cc2C(c2ccc(OCCOCC[N+]34CCN(CC3)CC4)c(F)c2)C1O (centres unmarked) [Example 1073] | 0.004 | – |
| CCCCC1(CCCC)CS(=O)(=O)c2ccc(N(C)C)cc2[C@@H](c2ccc(OCCCC[N+]34CCN(CC3)CC4)cc2)[C@H]1O [Example 1408, (4R-cis)-1-[4-[4-[3,3-Dibutyl-7-(dimethylamino)-2,3,4,5-tetrahydro-4-hydroxy-1,1-dioxido-1-benzothiepin-5-yl]phenoxy]butyl]-4-aza-1-azoniabicyclo [2.2.2]octanemethanesulfonate (Salt)] | – | IC50 [1]: 0.001 µM |
| CCCCC1(CCCC)CS(=O)(=O)c2ccc(N(C)C)cc2C(c2cccc(OCCOCCOCC[n+]3ccc(C(C)C)cc3)c2)C1O (centres unmarked) [Example 1026] | 0.002 | – |
| CCCCC[N+](CCCCC)(CCCCC)CCOCCOCCOc1cccc(C2c3cc(N(C)C)ccc3S(=O)(=O)CC(CCCC)(CCCC)C2O)c1 (centres unmarked) [Example 1278] | 0.017 | – |
| CCCCC1(CCCC)CS(=O)(=O)c2ccc(N(C)C)cc2C(c2cccc(OCCOCCOCC[N+](CC)(CC)CCN(C)P(C)(=O)c3ccccc3)c2)C1O (centres unmarked) [Example 1071] | 0.004 | – |

The next lines start with results.

| IC50 (read-out: Human TC IC50) [µM] | Compound | further results |
| --- | --- | --- |
| 0.11 | CCCCC1(CCCC)CS(=O)(=O)c2ccc([N+](C)(C)C)cc2C(c2ccc(OC)c(F)c2)C1O (centres unmarked) [Example 1165] | – |
| 1.67 | CCCCCCNc1ccc2c(c1)C(c1ccccc1)C(O)C(CC)(CCCC)CS2(=O)=O (centres unmarked) [Example 123] | – |
| 0.85 | CCCCC1(CCCC)CS(=O)(=O)c2ccc(N(C)C)cc2C(c2ccc(C[n+]3ccccc3)cc2)C1O (centres unmarked) [Example 1254] | – |
| 0.0063 | CCCCC1(CC)CS(=O)(=O)c2ccc(N(C)C)cc2C(c2ccc(OC)cc2)C1O (centres unmarked) [Example 1099] | – |
| 0.009 | CCCCC1(CCCC)CS(=O)(=O)c2ccc(N(C)C)cc2C(c2ccc(OCc3ccncc3)c(F)c2)C1O (centres unmarked) [Example 1113] | – |
| 0.028 | CCCCC1(CCCC)CS(=O)(=O)c2ccc(N(C)C)cc2C(c2ccc(OCc3cccc(CCl)n3)c(F)c2)C1O (centres unmarked) [Example 1274] | – |
| 3 | CCCCC1(CC)CS(=O)(=O)c2cc(OC(C)=O)ccc2C(c2ccccc2)C1O (centres unmarked) [Example 138] | – |
| 0.017 | CCCCC1(CCCC)CS(=O)(=O)c2ccc(N(C)C)cc2C(c2ccc(OCCC[n+]3ccccc3CCCO)c(F)c2)C1O (centres unmarked) [Example 1290] | – |
| 0.19 | CCCCC1(CCCC)CS(=O)(=O)c2cc(OC)ccc2C(c2ccccc2)C1O (centres unmarked) [Example 1179] | – |
| 0.18 | CCCCN(C)c1ccc2c(c1)C(c1cccc(OC)c1)C(O)C(CCCC)(CCCC)CS2(=O)=O (centres unmarked) [Example 1177] | – |
| 0.32 | CCCCC1(CCCC)CS(=O)(=O)c2ccc(C)cc2C(c2ccc(F)cc2)C1O (centres unmarked) [Example 1187] | – |
| 0.002 | CCCCC1(CCCC)CS(=O)(=O)c2ccc(N(C)C)cc2C(c2cccc(OCCOCCOCC[N+]3(C)CCC(C(=O)c4ccccc4)CC3)c2)C1O (centres unmarked) [Example 1029] | – |
| 0.35 | CCCCC1(CC)CS(=O)(=O)c2ccc(C)cc2C(c2ccc(F)cc2)C1O (single isomer, unassigned) [Example 283] | – |
| 0.39 | CCCCC1(CCCC)CS(=O)(=O)c2c(cccc2N2CCOCC2)C(c2ccc(OC)cc2)C1O (single isomer, unassigned) [Example 1212] | – |
| 0.013 | CCCCC1(CCCC)CS(=O)(=O)c2ccc(N(C)C)cc2C(c2ccccc2)C1O (centres unmarked) [Example 294] | – |
| 0.28 | CCCCC1(CCCC)CS(=O)(=O)c2ccc(F)cc2C(c2cccc(OC)c2)C1O (centres unmarked) [Example 1183] | – |
| 0.22 | CCCCC1(CCCC)CS(=O)(=O)c2ccc(N(C)C)cc2C(c2ccc[n+](C)c2)C1O (centres unmarked) [Example 1356] | – |
| 0.012 | CCCCC1(CCCC)CS(=O)(=O)c2ccc(N(C)C)cc2C(c2ccc(OC)c(Cl)c2)C1O (centres unmarked) [Example 1125] | – |
| 0.3 | CCCCCC(=O)Nc1ccc2c(c1)C(c1ccccc1)C(O)C(CC)(CCCC)CS2(=O)=O (centres unmarked) [Example 108] | – |
| 0.09 | CCCC[C@]1(CC)CS(=O)(=O)c2cc(O)ccc2[C@@H](c2ccccc2)[C@H]1O [Example 136] | – |
| 2 | CCCCC1(CCCC)CS(=O)(=O)c2ccc(OC)cc2C(c2cccc([N+](C)(C)C)c2)C1O (centres unmarked) [Example 1196] | – |
| 0.004 | CCCCC1(CC)CS(=O)(=O)c2ccc(N(C)C)cc2C(c2ccc(OC)c(F)c2)C1O (centres unmarked) [Example 1074] | – |
| 0.013 | CCCCC1(CCCC)CS(=O)(=O)c2ccc(N(C)C)cc2C(c2cccc(N(C)C)c2)C1O (centres unmarked) [Example 1250] | – |
| 3.27 | CCCCC1(CC)CS(=O)(=O)c2ccc(NO)cc2C(c2ccccc2)C1O (single isomer, unassigned) [Example 1311] | – |
| 0.005 | CCCCC1(CCCC)CS(=O)(=O)c2ccc(N(C)C)cc2C(c2cccc(OCCOCCOCC[N+](C)(C)CCN(CC)C(=O)c3ccccc3)c2)C1O (centres unmarked) [Example 1086] | – |
| 0.027 | CCCCC1(CCCC)CS(=O)(=O)c2ccc(N(C)C)cc2C(c2ccc(OC)c(F)c2)C1O (single isomer, unassigned) [Example 1143] | – |
| 0.004 | CCCCC1(CCCC)CS(=O)(=O)c2ccc(N(C)C)cc2C(c2cccc(OCCOCCOCC[n+]3cc4ccccc4c4ccccc43)c2)C1O (centres unmarked) [Example 1066] | – |
